Values belong to the compound of their own block, whether it stands above or below them.
Experiments:
Format in all cases: biochemical, Agrobacterium tumefaciens NT 1130
1,5-AG dehydrogenase [1] = test: Electron acceptor utilisation by 1,5-AG dehydrogenase (relative activity); conditions: 100 mM potassium phosphate buffer pH 8.0
Procedure: In 100 mM of the potassium phosphate buffer (pH 8.0), various electron acceptors were made present together with the present enzyme, where the activities on the respective electron acceptors were indicated as relative activities, which were as shown in Table 3.

1,5-AG dehydrogenase [2] = test: Substrate specificity of 1,5-AG dehydrogenase (relative activity on various sugars); conditions: substrate final concentration 5 mM; for Relative activity (substrate specificity): 1,5-AG = 100, nitrotetrazolium blue, pH 8.0, 37° C.
Procedure: The activity of the 1,5-AG dehydrogenase is measured in the following way. That is, 3.0 ml in total of an enzyme-containing solution comprised of 1.5 ml of 0.2M potassium phosphate buffer (pH 8.0), 0.3 ml of 0.25% by weight nitrotetrazolium blue, 0.3 ml of 2% by weight nonionic surface-active agent, 0.3 ml of an aqueous 50 mM 1,5-AG solution, 0.45 ml of water and 0.15 ml of an enzyme solution is reacted at 37° C., and a change in absorbance (ΔmOD/min) at 540 nm is measured. The molecular extinction coefficient (or molar absorption coefficient) of a formazan dye formed under such conditions is given as 16.7×10^3 and the quantity of the enzyme capable of forming 1 μmol of formazan in one minute is regarded as one unit, where the activity of the 1,5-AG dehydrogenase is determined according to the following expression; [formula] (1) Activity:
Relative activities (substrate specificity) of instances where the 1,5-AG was replaced with various sugar solutions (all having a final concentration of 5 mM) in the above method of measuring the enzymatic activity are shown in Table 2.

1,5-AG dehydrogenase [3] = test: Km value by Lineweaver-Burk plot; conditions: read-out: Km value with respect to 1,5-AG
Procedure: The Km value of the present enzyme with respect to 1,5-AG was determined by the Lineweaver-Burk plot to reveal that it was about 0.5 mM.

SMILES: NC(=O)c1ccc[n+]([C@@H]2O[C@H](COP(=O)([O-])OP(=O)(O)OC[C@H]3O[C@@H](n4cnc5c(N)ncnc54)[C@H](O)[C@@H]3O)[C@@H](O)[C@H]2O)c1 [NAD, nicotinamide adenine dinucleotide]
- Relative activity (electron acceptor) (1,5-AG dehydrogenase [1]; acceptor 1.0 mM): 0%

- Relative activity (substrate specificity) (1,5-AG dehydrogenase [2]): 0
SMILES: O=C[C@H](O)[C@@H](O)[C@@H](O)[C@H](O)CO [D-galactose]

- Action of the enzyme on the substrate (in words) (1,5-AG dehydrogenase [2]): slightly acted
- Relative activity (substrate specificity) (1,5-AG dehydrogenase [2]): 11
SMILES: O=C[C@H](O)[C@@H](O)[C@H](O)[C@H](O)CO [D-glucose]

SMILES: COc1cc(-c2ccc(-[n+]3nc(-c4ccccc4)nn3-c3ccc([N+](=O)[O-])cc3)c(OC)c2)ccc1-[n+]1nc(-c2ccccc2)nn1-c1ccc([N+](=O)[O-])cc1 [Nitrotetrazolium blue]
- Relative activity (electron acceptor) (1,5-AG dehydrogenase [1]; acceptor 1.0 mM): 53%

SMILES: O=O [Oxygen]
- Relative activity (electron acceptor) (1,5-AG dehydrogenase [1]; dissolved oxygen): 0%

- Relative activity (substrate specificity) (1,5-AG dehydrogenase [2]): 0
SMILES: O[C@H]1[C@H](O)[C@@H](O)[C@H](O)[C@@H](O)[C@H]1O [Myoinocitol]

- Action of the enzyme on the substrate (in words) (1,5-AG dehydrogenase [2]): weakly acted
- Relative activity (substrate specificity) (1,5-AG dehydrogenase [2]): 25
SMILES: O=C(CO)[C@@H](O)[C@H](O)[C@@H](O)CO [L-sorbose]

SMILES: O=C1C(Cl)=CC(=Nc2ccc(O)cc2)C=C1Cl [2,6-Dichlorophenolindophenol]
- Relative activity (electron acceptor) (1,5-AG dehydrogenase [1]; acceptor 0.1 mM): 100%

- Relative activity (substrate specificity) (1,5-AG dehydrogenase [2]): 0
SMILES: OC[C@H]1O[C@H](O[C@H]2[C@H](O)[C@@H](O)C(O)O[C@@H]2CO)[C@H](O)[C@@H](O)[C@@H]1O (mixture of isomers) [Maltose]

SMILES: OC[C@@H](O)[C@@H](O)[C@H](O)[C@@H](O)CO [Glucitol]
- Relative activity (substrate specificity) (1,5-AG dehydrogenase [2]): 0

- Relative activity (substrate specificity) (1,5-AG dehydrogenase [2]): 2
SMILES: O=C(CO)[C@@H](O)[C@H](O)[C@H](O)CO [D-fructose]

SMILES: OC[C@H]1OC[C@H](O)[C@@H](O)[C@@H]1O [1,5-AG, 1,5-anhydroglucitol]
- Action of the enzyme on the substrate (in words) (1,5-AG dehydrogenase [2]): strongly acted
- Relative activity (substrate specificity) (1,5-AG dehydrogenase [2]): 100
- Km (1,5-AG dehydrogenase [3]): ~500 µM

SMILES: NC(=O)c1ccc[n+]([C@@H]2O[C@H](COP(=O)([O-])OP(=O)(O)OC[C@H]3O[C@@H](n4cnc5c(N)ncnc54)[C@H](OP(=O)(O)O)[C@@H]3O)[C@@H](O)[C@H]2O)c1 [NADP]
- Relative activity (electron acceptor) (1,5-AG dehydrogenase [1]; acceptor 1.0 mM): 0%
